Earlier results, collected in patent publication US6710071B2, “Difluoromethylene aromatic ethers as inhibitors of glycine transport” (Pfizer Inc, priority 2001, dated 2004).

System: NMDA receptor
Settings: effect blocked by a specific NMDA-site antagonist and a glycine-site antagonist

CN(CCC(Oc1ccc(-c2ccccc2)cc1)c1ccc(F)cc1)CC(=O)O (stereo not shown) [NFPS]
post synaptic current driven by the NMDA receptor: increased
